Measurements reported in US20210379066A1, “COMBINATIONS OF POSITIVE ALLOSTERIC MODULATORS AND NICOTINIC ACETYLCHOLINE RECEPTOR AGONISTS FOR TREATING OCULAR CONDITIONS” (Oyster Point Pharma, Inc., priority 2018, published 2021).
Structures can show the parent of a compound that is named as a salt.

What was measured:
Type in all cases: cell-based
[1] = molecular target: T1, human nAChR alpha3alpha5beta4 (Homo sapiens, UniProt P30532+P30926+P32297); assay: Agonist activity, two-electrode voltage clamp in Xenopus oocytes (Examples 2 and 5); conditions: for agonist character: versus ACh response, mono-citrate
T1 construct: expressed in transfected cells; host or cells: Xenopus laevis oocytes (cDNA injection)
Method: (§1) All experiments were carried out at human nAChRs expressed in Xenopus oocytes using the method of cDNA expression. Xenopus oocytes were prepared and injected using standard procedures.
(§2) Briefly, ovaries were harvested from Xenopus Laevis females that have been deeply anesthetized by cooling at 4° C. and Tricaine methanesulfonate (MS-222 at a concentration of 150 mg/L) in sodium bicarbonate (300 mg/L). Once anesthetized the animal was decapitated and pithed following the rules of animal rights from the Geneva canton. A small piece of ovary was isolated for immediate preparation while the remaining part was placed at 4° C. in a sterile Barth solution containing in mM NaCl 88, KCl 1, NaHCO32.4, HEPES 10, MgSO4.7H2O 0.82, Ca(NO3)2.4H2O 0.33, CaCl2.6H2O 0.41, at pH 7.4, and supplemented with 20 μg/ml of kanamycin, 100 unit/ml penicillin. All recordings were performed at 18° C. and cells superfused with OR2 medium containing in mM: NaCl 88, KCl 2.5, HEPES 5, CaCl2.2H2O 1.8, MgCl2.6H2O 1, pH 7.4.
(§3) Currents evoked by ACh or other agonists were recorded using an automated process equipped with standard two-electrode voltage-clamp configuration (TEVC). Data were captured and analyzed using a HiQScreen proprietary data acquisition and analysis software running under Matlab (Mathworks Inc.).
(§4) See Example 1. […] The test concentration of acetylcholine chloride was 1280 micromolar.
(§5) Injections of cDNAs encoding for the human alpha3beta4, alpha3alpha5beta4, alpha4beta2, and alpha7 were performed in at least 95 oocytes were performed using a proprietary automated injection and receptor expression examined at least two days later. Oocytes were poked with two electrodes and their membrane potential maintained, unless indicated, at −80 mV throughout the experiment.
(§6) A protocol to determine agonistic activity in the oocytes expressing the nAChRs was developed. The cells were exposed to a series of increasing concentrations of a compound agonist for 10 seconds each at two minute intervals. The current evoked from exposure to the agonist at each concentration was recorded. For oocytes expressing alpha7 nAChRs, exposure to the agonist was reduced to 5 seconds. This process was repeated for each agonist tested against each type of nAChR expressing cell.
(§7) To evaluate the agonistic properties of compound 1 hemi-galactarate dihydrate a protocol of brief exposures to a series of growing concentrations of compound 1 hemi-galactarate dihydrate was used.
(§8) Agonist Preparation: See Example 1. […] The test concentration of acetylcholine chloride was 1280 micromolar.
as §5, with “Experimental Procedures: Injections” for “Injections”, “alpha4beta2, alpha4alpha6beta2,” for “alpha4beta2,”, “oocytes” for “oocytes were performed”, “injection device. Cellular” for “injection and”, “expression was” for “expression”
as §6, with “developed. Oocytes expressing a nAChR subtype were exposed to a brief test pulse of acetylcholine (1280 micromolar) while the holding current and response was evaluated. Cells displaying robust currents were washed for 90 seconds.” for “developed.”, “were then” for “were”, “nAChR” for “compound”, “intervals. The nAChR agonist test concentrations were 0.1, 0.3, 1, 3, 10, 30, 100, 300 (micromolar).” for “intervals.”

human nAChR alpha3beta4 = molecular target: T2, human nAChR alpha3beta4 (Homo sapiens, UniProt P30926+P32297); assay: as above; conditions: for agonist character: versus ACh response, mono-citrate
T2 construct: expressed in transfected cells; host or cells: Xenopus laevis oocytes (cDNA injection)
Method: as §1, §2, §3, §4, §5, §6, §7, §8
as §5, with “Experimental Procedures: Injections” for “Injections”, “alpha4beta2, alpha4alpha6beta2,” for “alpha4beta2,”, “oocytes” for “oocytes were performed”, “injection device. Cellular” for “injection and”, “expression was” for “expression”
as §6, with “developed. Oocytes expressing a nAChR subtype were exposed to a brief test pulse of acetylcholine (1280 micromolar) while the holding current and response was evaluated. Cells displaying robust currents were washed for 90 seconds.” for “developed.”, “were then” for “were”, “nAChR” for “compound”, “intervals. The nAChR agonist test concentrations were 0.1, 0.3, 1, 3, 10, 30, 100, 300 (micromolar).” for “intervals.”

human nAChR alpha4beta2 = molecular target: T3, human nAChR alpha4beta2 (Homo sapiens, UniProt P17787+P43681); assay: as above; conditions: for agonist character: versus ACh response
T3 construct: expressed in transfected cells; host or cells: Xenopus laevis oocytes (cDNA injection)
Method: as §1, §2, §3, §4, §5, §6, §7, §8
as §5, with “Experimental Procedures: Injections” for “Injections”, “alpha4beta2, alpha4alpha6beta2,” for “alpha4beta2,”, “oocytes” for “oocytes were performed”, “injection device. Cellular” for “injection and”, “expression was” for “expression”
as §6, with “developed. Oocytes expressing a nAChR subtype were exposed to a brief test pulse of acetylcholine (1280 micromolar) while the holding current and response was evaluated. Cells displaying robust currents were washed for 90 seconds.” for “developed.”, “were then” for “were”, “nAChR” for “compound”, “intervals. The nAChR agonist test concentrations were 0.1, 0.3, 1, 3, 10, 30, 100, 300 (micromolar).” for “intervals.”

human nAChR alpha7 = molecular target: T4, human nAChR alpha7 (Homo sapiens, UniProt P36544); assay: as above; conditions: for percent of the maximal ACh-evoked current: at 300 μM (300 micromolar) agonist; for percent of the maximal ACh-evoked current / agonist character: mono-citrate; for agonist character: versus ACh response
T4 construct: expressed in transfected cells; host or cells: Xenopus laevis oocytes (cDNA injection)
Method: as §1, §2, §3, §4, §5, §6, §7, §8
as §5, with “Experimental Procedures: Injections” for “Injections”, “alpha4beta2, alpha4alpha6beta2,” for “alpha4beta2,”, “oocytes” for “oocytes were performed”, “injection device. Cellular” for “injection and”, “expression was” for “expression”
as §6, with “developed. Oocytes expressing a nAChR subtype were exposed to a brief test pulse of acetylcholine (1280 micromolar) while the holding current and response was evaluated. Cells displaying robust currents were washed for 90 seconds.” for “developed.”, “were then” for “were”, “nAChR” for “compound”, “intervals. The nAChR agonist test concentrations were 0.1, 0.3, 1, 3, 10, 30, 100, 300 (micromolar).” for “intervals.”

[2] = molecular target: T5, human nAChR alpha4alpha6beta2 (Homo sapiens, UniProt P17787+P43681+Q15825); assay: Agonist activity, two-electrode voltage clamp in Xenopus oocytes (Example 5); conditions: for agonist character: versus ACh response, mono-citrate
T5 construct: expressed in transfected cells; host or cells: Xenopus laevis oocytes (cDNA injection)
Method: as §1, §2, §3, §8
as §5, with “Experimental Procedures: Injections” for “Injections”, “alpha4beta2, alpha4alpha6beta2,” for “alpha4beta2,”, “oocytes” for “oocytes were performed”, “injection device. Cellular” for “injection and”, “expression was” for “expression”
as §6, with “developed. Oocytes expressing a nAChR subtype were exposed to a brief test pulse of acetylcholine (1280 micromolar) while the holding current and response was evaluated. Cells displaying robust currents were washed for 90 seconds.” for “developed.”, “were then” for “were”, “nAChR” for “compound”, “intervals. The nAChR agonist test concentrations were 0.1, 0.3, 1, 3, 10, 30, 100, 300 (micromolar).” for “intervals.”

T1 sequence (P32297 32-505): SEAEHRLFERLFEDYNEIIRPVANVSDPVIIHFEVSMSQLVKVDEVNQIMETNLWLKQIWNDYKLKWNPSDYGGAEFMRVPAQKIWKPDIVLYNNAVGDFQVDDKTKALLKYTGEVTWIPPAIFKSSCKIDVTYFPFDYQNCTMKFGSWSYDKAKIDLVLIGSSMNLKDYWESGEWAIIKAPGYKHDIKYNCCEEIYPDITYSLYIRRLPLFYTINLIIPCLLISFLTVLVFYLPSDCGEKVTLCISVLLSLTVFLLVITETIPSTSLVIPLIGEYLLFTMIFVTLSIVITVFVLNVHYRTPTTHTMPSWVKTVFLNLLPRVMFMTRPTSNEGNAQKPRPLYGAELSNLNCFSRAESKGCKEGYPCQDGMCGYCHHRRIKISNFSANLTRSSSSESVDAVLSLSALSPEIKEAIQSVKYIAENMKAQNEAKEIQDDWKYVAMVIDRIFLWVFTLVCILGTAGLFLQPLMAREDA
T1 sequence (P30532 23-468): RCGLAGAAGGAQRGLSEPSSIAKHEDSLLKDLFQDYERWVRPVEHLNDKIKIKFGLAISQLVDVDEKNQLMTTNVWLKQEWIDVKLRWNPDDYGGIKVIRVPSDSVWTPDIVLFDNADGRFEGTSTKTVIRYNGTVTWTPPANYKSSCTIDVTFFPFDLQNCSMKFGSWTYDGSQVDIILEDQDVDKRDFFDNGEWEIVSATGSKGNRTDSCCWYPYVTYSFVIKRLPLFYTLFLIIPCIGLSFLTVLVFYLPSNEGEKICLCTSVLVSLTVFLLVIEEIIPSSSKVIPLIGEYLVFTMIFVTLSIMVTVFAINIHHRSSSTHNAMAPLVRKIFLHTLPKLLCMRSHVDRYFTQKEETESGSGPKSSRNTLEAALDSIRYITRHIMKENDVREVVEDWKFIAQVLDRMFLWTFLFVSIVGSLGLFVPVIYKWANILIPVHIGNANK
T1 sequence (P30926 22-498): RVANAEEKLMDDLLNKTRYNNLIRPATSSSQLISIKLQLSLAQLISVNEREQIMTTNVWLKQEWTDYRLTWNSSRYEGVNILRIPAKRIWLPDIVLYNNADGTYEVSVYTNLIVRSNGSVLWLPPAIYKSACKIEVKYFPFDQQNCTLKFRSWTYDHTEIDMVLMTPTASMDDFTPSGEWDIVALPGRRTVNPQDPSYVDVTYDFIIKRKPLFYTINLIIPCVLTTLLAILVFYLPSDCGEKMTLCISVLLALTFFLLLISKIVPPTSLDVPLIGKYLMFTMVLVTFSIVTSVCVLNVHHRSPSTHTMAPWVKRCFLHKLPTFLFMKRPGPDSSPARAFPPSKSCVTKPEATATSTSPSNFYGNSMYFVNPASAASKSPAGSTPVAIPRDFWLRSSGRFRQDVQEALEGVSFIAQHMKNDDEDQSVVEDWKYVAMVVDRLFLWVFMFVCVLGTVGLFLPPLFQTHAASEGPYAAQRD
T2 sequence (P32297 32-505): as the sequence (P32297 32-505) above
T2 sequence (P30926 22-498): as the sequence (P30926 22-498) above
T4 sequence (P36544 23-502): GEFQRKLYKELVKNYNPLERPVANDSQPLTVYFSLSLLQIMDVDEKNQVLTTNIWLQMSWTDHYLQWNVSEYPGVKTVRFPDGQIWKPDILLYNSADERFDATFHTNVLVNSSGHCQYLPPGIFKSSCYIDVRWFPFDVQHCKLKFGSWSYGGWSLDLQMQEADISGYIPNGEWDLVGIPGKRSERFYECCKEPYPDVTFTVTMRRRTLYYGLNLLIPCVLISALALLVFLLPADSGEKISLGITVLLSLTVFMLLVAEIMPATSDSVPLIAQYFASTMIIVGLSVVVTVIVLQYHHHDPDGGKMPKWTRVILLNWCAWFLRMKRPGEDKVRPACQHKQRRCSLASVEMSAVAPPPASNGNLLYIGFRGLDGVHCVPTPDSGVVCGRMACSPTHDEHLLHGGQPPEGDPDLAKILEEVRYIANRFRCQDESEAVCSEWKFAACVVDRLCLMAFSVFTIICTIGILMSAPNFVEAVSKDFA
T5 sequence (P43681 29-627 limits assumed): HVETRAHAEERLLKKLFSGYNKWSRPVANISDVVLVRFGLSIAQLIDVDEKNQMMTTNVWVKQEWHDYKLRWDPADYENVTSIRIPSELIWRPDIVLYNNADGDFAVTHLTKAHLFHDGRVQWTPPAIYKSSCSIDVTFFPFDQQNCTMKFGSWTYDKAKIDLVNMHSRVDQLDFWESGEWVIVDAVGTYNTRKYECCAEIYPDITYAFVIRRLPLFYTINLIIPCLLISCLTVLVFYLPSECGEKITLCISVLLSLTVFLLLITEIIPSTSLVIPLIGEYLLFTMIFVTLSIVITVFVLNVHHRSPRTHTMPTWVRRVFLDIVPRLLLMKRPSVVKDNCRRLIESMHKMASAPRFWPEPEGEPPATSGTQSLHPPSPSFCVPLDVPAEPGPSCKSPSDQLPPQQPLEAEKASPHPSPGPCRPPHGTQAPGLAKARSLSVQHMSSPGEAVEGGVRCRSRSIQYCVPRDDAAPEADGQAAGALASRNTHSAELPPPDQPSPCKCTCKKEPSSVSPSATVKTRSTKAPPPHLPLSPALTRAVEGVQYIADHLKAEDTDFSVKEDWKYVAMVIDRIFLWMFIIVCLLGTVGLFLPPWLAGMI
T5 sequence (Q15825 26-494): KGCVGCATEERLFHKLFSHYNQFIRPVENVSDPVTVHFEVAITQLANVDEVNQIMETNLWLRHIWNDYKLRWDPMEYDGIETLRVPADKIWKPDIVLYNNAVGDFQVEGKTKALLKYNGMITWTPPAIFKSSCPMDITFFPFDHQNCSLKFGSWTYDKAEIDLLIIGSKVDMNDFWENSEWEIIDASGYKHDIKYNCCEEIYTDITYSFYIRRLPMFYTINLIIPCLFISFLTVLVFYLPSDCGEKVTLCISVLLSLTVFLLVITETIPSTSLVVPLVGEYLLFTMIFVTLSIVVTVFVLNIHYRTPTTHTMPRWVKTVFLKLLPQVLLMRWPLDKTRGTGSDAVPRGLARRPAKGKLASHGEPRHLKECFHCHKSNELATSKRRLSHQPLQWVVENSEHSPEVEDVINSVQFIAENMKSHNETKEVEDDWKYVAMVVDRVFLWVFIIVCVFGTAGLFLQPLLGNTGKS
T5 sequence (P17787 26-502): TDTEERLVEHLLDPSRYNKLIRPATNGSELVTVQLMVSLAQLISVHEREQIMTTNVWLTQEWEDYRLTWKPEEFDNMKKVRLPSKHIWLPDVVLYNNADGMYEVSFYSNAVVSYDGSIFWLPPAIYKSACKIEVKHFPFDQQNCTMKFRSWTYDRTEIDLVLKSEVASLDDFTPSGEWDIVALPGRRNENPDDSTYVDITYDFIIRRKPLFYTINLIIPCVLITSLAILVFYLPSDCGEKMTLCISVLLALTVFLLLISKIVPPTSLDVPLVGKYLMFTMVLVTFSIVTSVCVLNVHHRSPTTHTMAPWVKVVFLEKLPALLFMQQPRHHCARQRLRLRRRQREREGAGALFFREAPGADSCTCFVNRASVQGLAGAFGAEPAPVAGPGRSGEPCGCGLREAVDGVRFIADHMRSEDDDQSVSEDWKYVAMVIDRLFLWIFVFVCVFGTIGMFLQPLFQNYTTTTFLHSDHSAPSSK
T3 sequence (P43681 29-627 limits assumed): as the sequence (P43681 29-627 limits assumed) above
T3 sequence (P17787 26-502): as the sequence (P17787 26-502) above

Question: For C(=C\[C@H]1CCNC1)/c1cncnc1 [compound 1 citrate, (R)-5-((E)-2-pyrrolidin-3-ylvinyl)pyrimidine mono-citrate], which EC50 ([1]; Example 5, read-out: EC50) is on record?
Answer: The EC50 was 83 ± 9.05 µM.

Question: What about the agonist character ([1]; listed as Compound 1 citrate) of the same compound?
Answer: Its agonist character is “almost as a full agonist”.

Question: What about the agonist character [1] of the same compound?
Answer: Its agonist character is “almost full agonist”.

Question: What about the EC50 (human nAChR alpha3beta4; read-out: EC50) of the same compound?
Answer: Its EC50 is 34.9 ± 4.53 µM.

Question: What about the agonist character (human nAChR alpha3beta4; listed as Compound 1 citrate) of the same compound?
Answer: Its agonist character is “almost as a full agonist”.

Question: And the agonist character (human nAChR alpha3beta4)?
Answer: Its agonist character is “almost full agonist”.

Question: And the EC50 (human nAChR alpha4beta2; Example 5, read-out: EC50)?
Answer: Its EC50 is 13.5 ± 2.06 µM.

Question: And the “effect on the subsequent ACh-evoked current” value (human nAChR alpha4beta2; after exposure to the agonist concentration series, mono-citrate)?
Answer: The value was “Significant inhibition”.

Question: And the agonist character (human nAChR alpha4beta2; listed as Compound 1 citrate, mono-citrate)?
Answer: Its agonist character is “almost as a full agonist”.

Question: What about the agonist character (human nAChR alpha4beta2; mono-citrate) of the same compound?
Answer: The agonist character was “almost full agonist”.

Question: And the “fraction of the maximal ACh-evoked current” value (human nAChR alpha7; 300 micromolar concentration)?
Answer: Its value is 25%.

Question: And the EC50 (human nAChR alpha7; Example 5, only an estimation)?
Answer: Its EC50 is 126 ± 28.5 µM.

Question: What about the “percent of the maximal ACh-evoked current” value (human nAChR alpha7; listed as Compound 1 citrate) of the same compound?
Answer: Its value is 25%.

Question: What about the “percent of the maximal ACh-evoked current” value (human nAChR alpha7) of the same compound?
Answer: The value was 25%.

Question: What about the agonist character (human nAChR alpha7; listed as Compound 1 citrate) of the same compound?
Answer: The agonist character was “poor agonist”.

Question: What about the agonist character (human nAChR alpha7) of the same compound?
Answer: The agonist character was “weak partial agonist”.

Question: And the EC50 [2]?
Answer: The EC50 was 13.1 ± 3.68 µM.

Question: What about the agonist character ([2]; listed as Compound 1 citrate) of the same compound?
Answer: Its agonist character is “almost as a full agonist”.

Question: And the agonist character [2]?
Answer: Its agonist character is “almost full agonist”.
